Assay results reported in US11639350B2, “Heteroaryldihydropyrimidine derivatives and methods of treating hepatitis B infections” (Janssen Pharmaceutica NV, priority 2018, dated 2023).
Where two headings read alike, the source gives them in different places.

Columns and labels:
[1] = test system: HBV; assay: HBV inhibitory activity: HBV DNA in the culture medium of HepG2.2.15 cells by q-PCR; assay type: cell-based; details: HepG2.2.15 cells, 6 days of compound treatment, HBV DNA in culture medium by q-PCR, highest concentration 10 μM, read-out: EC50
Summary of the method: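 Supernatant HBV DNA quantified by q-PCR after a 6-day compound exposure, with one mid-course medium change, of HepG2.2.15 cells (stably integrated HBV; 40,000 per well, 2% FBS). Eight-point 3-fold series topped at 10 μM for antiviral EC50; separate plates of 5,000 cells per well with 100 μM top give CC50.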

[2] = Cytotoxicity determination in HepG2.2.15 cells (CCK-8); assay type: cell-based; details: human, 6 days of compound treatment, CCK-8, highest concentration 100 μM
Summary of the method: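 CC50 is from CCK-8 absorbance (450 nm, 630 nm reference) after 2.5 h with reagent. Before that, compounds were applied for six days, top concentration 100 μM, eight threefold dilutions, one mid-course medium change, to stably HBV-integrated HepG2.2.15 cells plated at 5,000/well in 2% FBS.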

[3] = Hepatitis B virus, HepG2.2.15, 144 h

Row | Compound | EC50 [1, 3] | CC50 at 6 days [2] | EC50 [1]
1 | COC(=O)C1=C([C@H]2CC[C@H](C(=O)O)CC2)NC(c2nccs2)=NC1c1ccc(F)c(F)c1Br (stereo partly drawn) [Compound 229B, (trans)-4-(6-(2-Bromo-3,4-difluorophenyl)-5-(methoxycarbonyl)-2-(thiazol-2-yl)-3,6-dihydropyrimidin-4-yl)cyclohexane-carboxylic Acid] | 11 nM | 32100 nM | –
2 | CCOC(=O)C1=C(C2CCN(S(=O)(=O)[C@H]3C[C@H](C(=O)O)C3)CC2)NC(c2nccs2)=NC1c1cccc(F)c1Cl (stereo partly drawn) [Compound 319B, (trans)-3-((4-(6-(2-chloro-3-fluorophenyl)-5-(ethoxycarbonyl)-2-(thiazol-2-yl)-3,6-dihydropyrimidin-4-yl)piperidin-1-yl)sulfonyl)-cyclobutanecarboxylic Acid] | 102 nM | 31300 nM | –
3 | COC(=O)C1=C([C@H]2CC[C@H](NS(N)(=O)=O)CC2)NC(c2nccs2)=NC1c1ccc(F)c(F)c1Cl (relative stereo) [Compound 238, (trans)-Methyl 4-(2-chloro-3,4-difluorophenyl)-6-(4-(sulfamoylamino)cyclohexyl)-2-(thiazol-2-yl)-1,4-dihydropyrimidine-5-carboxylate] | 53 nM | 13400 nM | –
4 | CCOC(=O)C1=C([C@H]2CC[C@H](C(=O)O)CO2)NC(c2nccs2)=NC1c1ccc(F)cc1Cl (single isomer, unassigned) [Compound 363E, (trans)-6-(−6-(2-Chloro-4-fluorophenyl)-5-(ethoxycarbonyl)-2-(thiazol-2-yl)-3,6-dihydropyrimidin-4-yl)tetrahydro-2H-pyran-3-carboxylic Acid] | – | > 100000 nM | 296 nM
5 | CCOC(=O)C1=C(C2CCN(S(=O)(=O)[C@H]3C[C@H](C(=O)O)C3)CC2)NC(c2nccs2)=NC1c1ccccc1Cl (stereo partly drawn) [Compound 146, (trans)-3-((4-(6-(2-chlorophenyl)-5-(ethoxycarbonyl)-2-(thiazol-2-yl)-3,6-dihydropyrimidin-4-yl)piperidin-1-yl)sulfonyl)cyclobutane-1-carboxylic Acid] | 68 nM | 42100 nM | –
6 | COC(=O)C1=C(C2CCN(S(=O)(=O)[C@H]3C[C@H](C(=O)O)C3)CC2)NC(c2nccs2)=NC1c1cccc(F)c1Cl (stereo partly drawn) [Compound 331C, (trans)-3-((4-(6-(2-Chloro-3-fluorophenyl)-5-(methoxycarbonyl)-2-(thiazol-2-yl)-3,6-dihydropyrimidin-4-yl)piperidin-1-yl)sulfonyl)cyclobutane-carboxylic Acid] | 192 nM | > 100000 nM | –
7 | COC(=O)C1=C(C2CN(S(C)(=O)=O)C2)NC(c2nccs2)=NC1c1ccc(F)cc1Cl (single isomer, unassigned) [Compound 84A, 4-(2-Chloro-4-fluoro-phenyl)-6-(1-methanesulfonyl-azetidin-3-yl)-2-thiazol-2-yl-1,4-dihydro-pyrimidine-5-carboxylic Acid Methyl Ester] | 118 nM | 29000 nM | –
8 | COC(=O)C1=C(C2CCCC(NS(C)(=O)=O)CC2)NC(c2nccs2)=NC1c1ccc(F)cc1Cl (stereo not shown) [Compound 190, Methyl 4-(2-chloro-4-fluorophenyl)-6-(4-(methylsulfonamido)-cycloheptyl)-2-(thiazol-2-yl)-1,4-dihydropyrimidine-5-carboxylate] | 78 nM | 15000 nM | –
9 | COC(=O)C1=C([C@H]2CC[C@H](NS(=O)(=O)CCCO)CC2)NC(c2nccs2)=NC1c1ccc(F)c(F)c1Cl (relative stereo) [Compound 253B, (trans)-Methyl 4-(2-chloro-3,4-difluorophenyl)-6-(4-(3-hydroxypropylsulfonamido)cyclohexyl)-2-(thiazol-2-yl)-1,4-dihydropyrimidine-5-carboxylate] | 8 nM | 13700 nM | –
10 | COC(=O)C1=C(C2CCN(S(=O)(=O)CC(=O)O)C2)NC(c2nccs2)=NC1c1ccc(F)cc1Cl (single isomer, unassigned) [Compound 214A, 2-((−3-(−6-(2-Chloro-4-fluorophenyl)-5-(methoxycarbonyl)-2-(thiazol-2-yl)-3,6-dihydropyrimidin-4-yl)pyrrolidin-1-yl)sulfonyl)acetic Acid] | – | > 100000 nM | 196 nM
11 | COC(=O)C1=C(C2CCCC3(C2)OCCO3)NC(c2nccs2)=NC1c1ccc(F)cc1Cl (stereo not shown) [Compound 218, Methyl 4-(2-chloro-4-fluorophenyl)-6-(1,4-dioxaspiro[4.5]decan-7-yl)-2-(thiazol-2-yl)-1,4-dihydropyrimidine-5-carboxylate] | 148 nM | 29700 nM | –
12 | COC(=O)C1=C([C@H]2CC[C@H](O)CC2)NC(c2nccs2)=NC1c1cccc(F)c1Cl (single isomer, unassigned) [Compound 381A, (trans)-Methyl 4-(2-chloro-3-fluorophenyl)-6-(4-hydroxycyclohexyl)-2-(thiazol-2-yl)-1,4-dihydropyrimidine-5-carboxylate] | 70 nM | 28500 nM | –
13 | COC(=O)C1=C([C@H]2CC[C@H](NS(=O)(=O)C3COC3)CC2)NC(c2nccs2)=NC1c1ccc(F)cc1Cl (single isomer, unassigned) [Compound 384B, (trans)-Methyl 4-(2-chloro-4-fluorophenyl)-6-(4-(oxetane-3-sulfonamido)cyclohexyl)-2-(thiazol-2-yl)-1,4-dihydropyrimidine-5-carboxylate] | 65 nM | 34000 nM | –
14 | CCOC(=O)C1=C([C@H]2CC[C@H](C(=O)NC)CC2)NC(c2nccs2)=NC1c1ccc(F)cc1Cl (single isomer, unassigned) [Compound 132A, trans-Ethyl 4-(2-chloro-4-fluorophenyl)-6-(4-(methylcarbamoyl)-cyclohexyl)-2-(thiazol-2-yl)-1,4-dihydropyrimidine-5-carboxylate] | 472 nM | 23900 nM | –
15 | COC(=O)C1=C([C@H]2CC[C@H](C(=O)O)CC2)NC(c2nccs2)=NC1c1ccc(F)c(F)c1Cl (relative stereo) [Compound 289A, (trans)-4-(6-(2-chloro-3,4-difluorophenyl)-5-(methoxycarbonyl)-2-(thiazol-2-yl)-3,6-dihydropyrimidin-4-yl)cyclohexanecarboxylic Acid] | 15 nM | 24200 nM | –
16 | COC(=O)C1=C([C@H]2CC[C@H](C(=O)OC)CC2)NC(c2nccs2)=NC1c1ccc(F)c(F)c1Cl (single isomer, unassigned) [Compound 288M, (trans)-Methyl 4-(2-chloro-3,4-difluorophenyl)-6-(4-(methoxycarbonyl)cyclohexyl)-2-(thiazol-2-yl)-1,4-dihydropyrimidine-5-carboxylate] | 63 nM | 20000 nM | –
17 | COC(=O)C1=C([C@H]2CCC[C@@H](C(=O)OC)C2)NC(c2nccs2)=NC1c1cccc(F)c1Cl (single isomer, unassigned) [Compound 24Q, cis-Methyl 4-(2-chloro-3-fluorophenyl)-6-(3-(methoxycarbonyl)-cyclohexyl)-2-(thiazol-2-yl)-1,4-dihydropyrimidine-5-carboxylate] | 964 nM | 3520 nM | –
18 | CCOC(=O)C1=C([C@H]2CC[C@H](C(=O)OC)CC2)NC(c2nccs2)=NC1c1ccc(F)cc1Cl (single isomer, unassigned) [Compound 20X, Ethyl 4-(2-chloro-4-fluorophenyl)-6-(trans-4-(methoxycarbonyl)-cyclohexyl)-2-(thiazol-2-yl)-1,4-dihydropyrimidine-5-carboxylate] | 52 nM | 27200 nM | –
19 | CCOC(=O)C1=C([C@@H]2C[C@H]2CC(=O)O)NC(c2nccs2)=NC1c1ccc(F)cc1Cl (single isomer, unassigned) [Compound 92, 2-(trans-2-(6-(2-Chloro-4-fluorophenyl)-5-(ethoxycarbonyl)-2-(thiazol-2-yl)-3,6-dihydropyrimidin-4-yl)cyclopropyl)acetic Acid] | 326 nM | 99000 nM | –
20 | CCOC(=O)C1=C(C2CCN(S(=O)(=O)[C@H]3CC[C@H](C(=O)O)CC3)CC2)NC(c2nccs2)=NC1c1ccc(F)c(F)c1Cl (relative stereo) [Compound 354C, (trans)-4-((4-(6-(2-Chloro-3,4-difluorophenyl)-5-(ethoxycarbonyl)-2-(thiazol-2-yl)-3,6-dihydropyrimidin-4-yl)piperidin-1-yl)sulfonyl)cyclohexane-carboxylic Acid] | 15 nM | 7900 nM | –
21 | COC(=O)C1=C(C2CCN(S(C)(=O)=O)CC2)NC(c2nccs2)=NC1c1ccc(F)cc1Br (single isomer, unassigned) [Compound 120A, Methyl 4-(2-bromo-4-fluorophenyl)-6-(1-(methylsulfonyl)-piperidin-4-yl)-2-(thiazol-2-yl)-1,4-dihydropyrimidine-5-carboxylate] | – | 31700 nM | 350 nM
22 | COC(=O)C1=C(C2CCN(S(C)(=O)=O)CC2)NC(c2nccs2)=NC1c1ccc(F)c(F)c1Cl (single isomer, unassigned) [Compound 59B, Methyl 4-(2-chloro-3,4-difluorophenyl)-6-(1-(methylsulfonyl)-piperidin-4-yl)-2-(thiazol-2-yl)-1,4-dihydropyrimidine-5-carboxylate] | 388 nM | 27900 nM | –
23 | COC(=O)C1=C(C2CCN(C(C)=O)CC2)NC(c2nccs2)=NC1c1ccc(F)cc1Cl (stereo not shown) [Compound 2, Methyl 6-(1-acetylpiperidin-4-yl)-4-(2-chloro-4-fluorophenyl)-2-(thiazol-2-yl)-1,4-dihydropyrimidine-5-carboxylate] | 232 nM | 98400 nM | –
